Reference: PMC3257585 (Journal of Medicinal Chemistry, 2011)

Legend:
[1] = biological target: PIM1 (Homo sapiens, UniProt P11309); experiment: Thermal stability shift assay; format: binding; details: Tm shift assay
[2] = biological target: T1, FLT3 (Homo sapiens, UniProt P36888); experiment: In vitro kinase selectivity panel; format: biochemical
T1 sequence (P36888 27-993): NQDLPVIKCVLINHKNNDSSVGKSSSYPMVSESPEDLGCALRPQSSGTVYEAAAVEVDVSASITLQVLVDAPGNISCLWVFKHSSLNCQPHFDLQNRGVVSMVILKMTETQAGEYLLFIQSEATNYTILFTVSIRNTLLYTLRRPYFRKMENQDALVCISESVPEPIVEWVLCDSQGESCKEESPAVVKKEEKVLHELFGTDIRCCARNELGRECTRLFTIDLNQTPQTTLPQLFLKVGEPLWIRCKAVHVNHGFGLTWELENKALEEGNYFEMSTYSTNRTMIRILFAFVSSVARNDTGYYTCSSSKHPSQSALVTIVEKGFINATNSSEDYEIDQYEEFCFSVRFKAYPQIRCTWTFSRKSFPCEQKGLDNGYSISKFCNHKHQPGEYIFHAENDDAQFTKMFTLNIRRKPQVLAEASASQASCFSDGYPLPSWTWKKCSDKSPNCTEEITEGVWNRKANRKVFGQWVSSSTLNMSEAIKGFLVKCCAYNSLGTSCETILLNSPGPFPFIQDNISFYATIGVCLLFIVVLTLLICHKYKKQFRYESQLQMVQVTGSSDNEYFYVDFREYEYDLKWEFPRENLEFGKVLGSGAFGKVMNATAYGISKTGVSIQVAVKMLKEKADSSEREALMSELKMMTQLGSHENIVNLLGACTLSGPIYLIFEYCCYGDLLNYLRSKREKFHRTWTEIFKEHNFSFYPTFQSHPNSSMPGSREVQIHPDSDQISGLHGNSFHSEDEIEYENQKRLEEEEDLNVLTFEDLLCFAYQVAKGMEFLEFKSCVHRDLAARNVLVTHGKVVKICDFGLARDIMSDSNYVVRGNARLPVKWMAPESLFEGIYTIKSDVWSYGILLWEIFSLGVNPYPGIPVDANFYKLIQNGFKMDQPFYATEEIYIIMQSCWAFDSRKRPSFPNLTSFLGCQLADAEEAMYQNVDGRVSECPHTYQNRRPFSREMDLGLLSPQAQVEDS

[3] = biological target: PDGFRa (Homo sapiens, UniProt P16234); experiment: In vitro kinase selectivity panel; format: biochemical
[4] = biological target: cKIT (Homo sapiens, UniProt P10721); experiment: In vitro kinase selectivity panel; format: biochemical
[5] = test system: phosphorylation of 4E-BP1; experiment: Western blot of 4E-BP1 phosphorylation in MV4; format: cell-based, human; details: MV4;11 cells, 0–10 μM
[6] = biological target: HER4 (Homo sapiens, UniProt Q15303); experiment: In vitro kinase selectivity panel; format: biochemical
[7] = biological target: CaMK2 (Homo sapiens, UniProt Q13555); experiment: In vitro kinase selectivity panel; format: biochemical
[8] = biological target: PKA (Homo sapiens, UniProt P17612); experiment: In vitro kinase selectivity panel; format: biochemical
[9] = biological target: BTKv2 (Homo sapiens, UniProt Q06187); experiment: In vitro kinase selectivity panel; format: biochemical
[10] = biological target: T2, PDK1v2 (Homo sapiens, UniProt O15530); experiment: In vitro kinase selectivity panel; format: biochemical
T2 sequence (O15530 1-556): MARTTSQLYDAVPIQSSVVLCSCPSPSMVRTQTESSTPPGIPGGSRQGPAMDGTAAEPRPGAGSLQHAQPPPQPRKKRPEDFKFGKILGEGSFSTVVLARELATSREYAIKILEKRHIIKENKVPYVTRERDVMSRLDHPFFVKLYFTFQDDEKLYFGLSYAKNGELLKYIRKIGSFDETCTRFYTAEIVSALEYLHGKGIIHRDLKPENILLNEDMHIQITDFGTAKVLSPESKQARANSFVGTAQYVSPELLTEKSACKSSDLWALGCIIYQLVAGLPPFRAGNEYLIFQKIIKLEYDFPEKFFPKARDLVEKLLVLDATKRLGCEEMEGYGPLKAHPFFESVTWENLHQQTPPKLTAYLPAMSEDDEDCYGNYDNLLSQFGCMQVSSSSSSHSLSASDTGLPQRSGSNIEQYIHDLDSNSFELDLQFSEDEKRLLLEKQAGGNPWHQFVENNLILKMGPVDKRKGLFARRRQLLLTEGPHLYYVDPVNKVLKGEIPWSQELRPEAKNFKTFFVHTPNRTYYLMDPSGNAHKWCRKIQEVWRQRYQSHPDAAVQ

PIM1, sequence (P11309 whole entry): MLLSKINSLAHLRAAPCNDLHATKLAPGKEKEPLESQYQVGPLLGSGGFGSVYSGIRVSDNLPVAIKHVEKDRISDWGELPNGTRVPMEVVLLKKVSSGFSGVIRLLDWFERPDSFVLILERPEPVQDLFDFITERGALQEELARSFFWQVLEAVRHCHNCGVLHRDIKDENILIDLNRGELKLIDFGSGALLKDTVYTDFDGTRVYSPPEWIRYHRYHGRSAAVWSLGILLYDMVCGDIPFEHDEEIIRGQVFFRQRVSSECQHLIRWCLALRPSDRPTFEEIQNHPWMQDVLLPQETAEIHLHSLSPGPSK
PDGFRa, sequence (P16234 24-1089): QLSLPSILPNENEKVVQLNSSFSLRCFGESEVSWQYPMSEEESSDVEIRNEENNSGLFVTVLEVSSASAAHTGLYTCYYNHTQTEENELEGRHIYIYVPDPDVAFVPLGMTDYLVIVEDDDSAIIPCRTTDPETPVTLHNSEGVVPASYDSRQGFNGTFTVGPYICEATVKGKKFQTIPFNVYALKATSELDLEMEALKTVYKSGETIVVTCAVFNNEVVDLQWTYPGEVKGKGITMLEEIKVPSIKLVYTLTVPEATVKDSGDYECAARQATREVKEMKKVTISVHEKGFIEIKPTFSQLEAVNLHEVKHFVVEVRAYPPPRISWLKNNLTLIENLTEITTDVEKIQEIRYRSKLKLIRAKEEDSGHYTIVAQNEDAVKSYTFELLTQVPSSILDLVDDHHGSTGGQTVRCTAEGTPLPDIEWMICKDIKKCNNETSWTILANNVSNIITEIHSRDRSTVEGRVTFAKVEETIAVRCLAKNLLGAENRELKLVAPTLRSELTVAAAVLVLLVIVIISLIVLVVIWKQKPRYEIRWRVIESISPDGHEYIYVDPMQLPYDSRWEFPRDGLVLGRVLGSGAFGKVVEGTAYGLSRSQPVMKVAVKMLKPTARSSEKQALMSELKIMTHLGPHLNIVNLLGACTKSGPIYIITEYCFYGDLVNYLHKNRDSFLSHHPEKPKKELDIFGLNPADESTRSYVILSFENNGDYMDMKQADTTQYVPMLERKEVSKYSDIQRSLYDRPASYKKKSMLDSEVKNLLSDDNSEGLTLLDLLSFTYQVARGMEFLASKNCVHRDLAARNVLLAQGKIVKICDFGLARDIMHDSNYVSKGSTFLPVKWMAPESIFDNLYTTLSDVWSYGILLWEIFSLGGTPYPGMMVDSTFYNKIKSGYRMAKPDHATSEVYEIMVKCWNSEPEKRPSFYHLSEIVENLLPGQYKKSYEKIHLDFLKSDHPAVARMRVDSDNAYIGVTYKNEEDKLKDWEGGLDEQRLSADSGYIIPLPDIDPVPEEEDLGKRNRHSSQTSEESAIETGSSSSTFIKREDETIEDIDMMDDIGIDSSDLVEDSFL
cKIT, sequence (P10721 26-976): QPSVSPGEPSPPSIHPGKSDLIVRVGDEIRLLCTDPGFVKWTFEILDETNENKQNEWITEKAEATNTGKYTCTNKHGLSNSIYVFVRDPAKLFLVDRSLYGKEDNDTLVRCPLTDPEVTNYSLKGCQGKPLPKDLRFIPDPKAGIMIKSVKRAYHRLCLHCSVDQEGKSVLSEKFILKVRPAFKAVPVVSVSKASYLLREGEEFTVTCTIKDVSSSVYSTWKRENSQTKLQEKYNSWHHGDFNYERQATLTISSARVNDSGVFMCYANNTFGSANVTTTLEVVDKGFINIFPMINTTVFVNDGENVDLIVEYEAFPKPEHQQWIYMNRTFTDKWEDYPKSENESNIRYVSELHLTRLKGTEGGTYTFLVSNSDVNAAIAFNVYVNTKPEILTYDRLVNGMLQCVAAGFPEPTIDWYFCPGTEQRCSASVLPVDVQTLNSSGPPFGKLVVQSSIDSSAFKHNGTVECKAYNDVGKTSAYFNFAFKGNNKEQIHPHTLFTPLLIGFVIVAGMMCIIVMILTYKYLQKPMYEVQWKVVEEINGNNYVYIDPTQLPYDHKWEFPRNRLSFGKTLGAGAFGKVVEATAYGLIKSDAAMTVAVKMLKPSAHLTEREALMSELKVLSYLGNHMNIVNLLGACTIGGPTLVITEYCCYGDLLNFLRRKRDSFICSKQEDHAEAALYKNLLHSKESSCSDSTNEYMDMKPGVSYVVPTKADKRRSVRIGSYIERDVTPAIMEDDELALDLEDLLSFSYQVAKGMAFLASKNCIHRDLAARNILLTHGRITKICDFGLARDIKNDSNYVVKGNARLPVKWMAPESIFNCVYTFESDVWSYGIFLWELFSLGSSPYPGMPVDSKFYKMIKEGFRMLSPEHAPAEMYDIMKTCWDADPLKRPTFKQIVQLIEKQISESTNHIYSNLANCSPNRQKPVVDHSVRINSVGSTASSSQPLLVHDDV
CaMK2, sequence (Q13555 whole entry): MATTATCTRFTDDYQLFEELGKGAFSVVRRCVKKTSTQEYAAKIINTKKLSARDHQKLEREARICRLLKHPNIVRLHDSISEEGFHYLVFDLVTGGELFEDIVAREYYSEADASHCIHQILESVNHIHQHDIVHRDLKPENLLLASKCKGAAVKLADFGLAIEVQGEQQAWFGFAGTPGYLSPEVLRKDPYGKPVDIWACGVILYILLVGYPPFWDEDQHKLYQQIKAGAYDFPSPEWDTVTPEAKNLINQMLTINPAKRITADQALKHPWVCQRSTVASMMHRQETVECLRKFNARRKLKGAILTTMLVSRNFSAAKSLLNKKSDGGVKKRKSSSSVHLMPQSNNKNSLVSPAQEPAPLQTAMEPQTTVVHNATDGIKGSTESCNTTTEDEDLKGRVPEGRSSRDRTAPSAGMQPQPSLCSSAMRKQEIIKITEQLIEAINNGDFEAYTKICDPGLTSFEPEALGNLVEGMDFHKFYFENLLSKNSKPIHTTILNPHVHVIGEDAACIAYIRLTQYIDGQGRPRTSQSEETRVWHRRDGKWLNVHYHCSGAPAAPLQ
BTKv2, sequence (Q06187 whole entry): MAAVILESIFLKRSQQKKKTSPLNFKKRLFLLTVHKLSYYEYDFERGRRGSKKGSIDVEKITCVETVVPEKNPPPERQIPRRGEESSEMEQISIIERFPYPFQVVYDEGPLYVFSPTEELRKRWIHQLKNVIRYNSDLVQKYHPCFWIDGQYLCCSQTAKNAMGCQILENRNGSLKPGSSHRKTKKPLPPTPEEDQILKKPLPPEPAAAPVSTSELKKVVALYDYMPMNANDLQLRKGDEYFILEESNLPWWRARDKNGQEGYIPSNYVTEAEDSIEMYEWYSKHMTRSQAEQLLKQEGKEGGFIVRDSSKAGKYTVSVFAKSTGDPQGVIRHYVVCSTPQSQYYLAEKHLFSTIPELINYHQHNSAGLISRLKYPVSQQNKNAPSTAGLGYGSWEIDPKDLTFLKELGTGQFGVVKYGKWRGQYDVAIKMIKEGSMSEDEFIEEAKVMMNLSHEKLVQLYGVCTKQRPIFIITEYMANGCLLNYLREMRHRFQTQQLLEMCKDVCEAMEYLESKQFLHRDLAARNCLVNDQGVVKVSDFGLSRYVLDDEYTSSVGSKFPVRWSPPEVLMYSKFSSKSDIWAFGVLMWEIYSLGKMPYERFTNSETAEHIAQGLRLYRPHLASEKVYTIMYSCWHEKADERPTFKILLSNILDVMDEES
HER4, sequence (Q15303 26-1308): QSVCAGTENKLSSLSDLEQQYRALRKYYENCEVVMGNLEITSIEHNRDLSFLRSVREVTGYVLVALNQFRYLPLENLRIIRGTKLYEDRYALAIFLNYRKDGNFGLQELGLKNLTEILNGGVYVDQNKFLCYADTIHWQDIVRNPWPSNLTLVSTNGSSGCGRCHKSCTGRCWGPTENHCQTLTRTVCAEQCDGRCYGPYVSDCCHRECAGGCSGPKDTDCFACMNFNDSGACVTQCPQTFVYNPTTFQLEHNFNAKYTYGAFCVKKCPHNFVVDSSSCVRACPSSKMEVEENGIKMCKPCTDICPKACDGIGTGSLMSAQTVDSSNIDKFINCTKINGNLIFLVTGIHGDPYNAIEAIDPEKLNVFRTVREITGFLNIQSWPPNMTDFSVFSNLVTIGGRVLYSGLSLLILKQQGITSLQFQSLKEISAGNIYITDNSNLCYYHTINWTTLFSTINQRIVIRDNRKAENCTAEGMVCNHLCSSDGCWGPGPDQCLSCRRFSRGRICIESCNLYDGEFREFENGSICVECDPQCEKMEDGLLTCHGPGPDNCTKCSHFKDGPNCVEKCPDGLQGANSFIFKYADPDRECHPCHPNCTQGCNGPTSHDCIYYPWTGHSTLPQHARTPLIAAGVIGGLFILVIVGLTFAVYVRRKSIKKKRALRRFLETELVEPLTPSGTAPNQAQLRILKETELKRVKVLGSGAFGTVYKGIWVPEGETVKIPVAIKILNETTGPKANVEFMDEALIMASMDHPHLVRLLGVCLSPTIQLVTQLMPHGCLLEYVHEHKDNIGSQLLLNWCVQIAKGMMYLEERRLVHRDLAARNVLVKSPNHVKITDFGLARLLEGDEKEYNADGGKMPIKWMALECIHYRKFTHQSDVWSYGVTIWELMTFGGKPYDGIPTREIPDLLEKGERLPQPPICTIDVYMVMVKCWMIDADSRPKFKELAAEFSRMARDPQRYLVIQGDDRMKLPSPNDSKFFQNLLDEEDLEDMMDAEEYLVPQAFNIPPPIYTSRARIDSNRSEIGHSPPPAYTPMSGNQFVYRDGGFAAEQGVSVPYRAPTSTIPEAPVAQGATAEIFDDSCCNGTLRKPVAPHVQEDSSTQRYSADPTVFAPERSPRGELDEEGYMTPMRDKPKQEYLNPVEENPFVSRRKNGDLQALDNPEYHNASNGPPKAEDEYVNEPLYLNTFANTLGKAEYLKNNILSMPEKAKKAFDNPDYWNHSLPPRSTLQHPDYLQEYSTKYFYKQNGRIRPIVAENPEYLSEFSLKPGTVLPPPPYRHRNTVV

## CN1CCC2(CC1)NC(=O)c1c(c3ccc(Cl)c(Cl)c3n1C)C2C#N (racemic) [Compound 17, (4′RS)-7′,8′-Dichloro-1,9′-dimethyl-1′-oxo-1′,2′,4′,9′-tetrahydrospiro[piperidine-4,3′-pyrido[3,4-b]indole]-4′-carbonitrile]
[1]
  activity against PIM1 (in words): highly potent inhibitors
[2]
  activity against FLT3 (in words): did not exhibit any significant activity
[3]
  activity against PDGFRα (in words): did not exhibit any significant activity
[4]
  activity against KIT (in words): did not exhibit any significant activity

## CCN1CCC2(CC1)NC(=O)c1c(c3ccc(Cl)c(Cl)c3n1C)C2C#N (racemic) [Compound 18, (4′RS)-7′,8′-Dichloro-1-ethyl-9′-methyl-1′-oxo-1′,2′,4′,9′-tetrahydrospiro[piperidine-4,3′-pyrido[3,4-b]indole]-4′-carbonitrile]
[1]
  activity against PIM1 (in words): highly potent inhibitors

## Cn1c2c(c3ccc(Cl)c(Cl)c31)C(C#N)C1(CCN(C(=O)OC(C)(C)C)CC1)NC2=O (racemic) [Compound 19, (4′RS)-tert-Butyl 7′,8′-Dichloro-4′-cyano-9′-methyl-1′-oxo-1′,2′,4′,9′-tetrahydrospiro[piperidine-4,3′-pyrido[3,4-b]indole]-1-carboxylate]
[1]
  activity against PIM1 (in words): did not exhibit any inhibitory potency

## Cn1c2c(c3ccc(Cl)c(Cl)c31)C(C#N)C1(CCNCC1)NC2=O (racemic) [Compound 20, (4′RS)-7′,8′-Dichloro-9′-methyl-1′-oxo-1′,2′,4′,9′-tetrahydrospiro[piperidine-4,3′-pyrido[3,4-b]indole]-4′-carbonitrile]
[5]
  phosphorylation of 4E-BP1: dose-dependent decrease
[1]
  activity against PIM1 (in words): highly potent inhibitors
[6]
  IC50: > 10 µM
[7]
  IC50: < 0.1 µM
[8]
  IC50: < 0.1 µM
[9]
  IC50: > 10 µM
[2]
  activity against FLT3 (in words): did not exhibit any significant activity
[3]
  activity against PDGFRα (in words): did not exhibit any significant activity
[4]
  activity against KIT (in words): did not exhibit any significant activity
[10]
  IC50: > 10 µM

## (4RS)-N-[(7,8-Dichloro-3,3-dimethyl-1-oxo-2,3,4,9-tetrahydro-1H-pyrido[3,4-b]indol-4-yl)methyl]acetamide [Compound 24]
[1]
  activity against PIM1 (in words): complete loss of activity
